Reference: patent US9695154B2, “Heteroaryl inhibitors of sumo activating enzyme” (MILLENNIUM PHARMACEUTICALS, INC., priority 2013, dated 2017)
pIC50: −log10 of the molar value.

Biological target: T1, recombinant human SAE enzyme (Homo sapiens, UniProt Q9UBT2)
T1 sequence (Q9UBT2 1-640): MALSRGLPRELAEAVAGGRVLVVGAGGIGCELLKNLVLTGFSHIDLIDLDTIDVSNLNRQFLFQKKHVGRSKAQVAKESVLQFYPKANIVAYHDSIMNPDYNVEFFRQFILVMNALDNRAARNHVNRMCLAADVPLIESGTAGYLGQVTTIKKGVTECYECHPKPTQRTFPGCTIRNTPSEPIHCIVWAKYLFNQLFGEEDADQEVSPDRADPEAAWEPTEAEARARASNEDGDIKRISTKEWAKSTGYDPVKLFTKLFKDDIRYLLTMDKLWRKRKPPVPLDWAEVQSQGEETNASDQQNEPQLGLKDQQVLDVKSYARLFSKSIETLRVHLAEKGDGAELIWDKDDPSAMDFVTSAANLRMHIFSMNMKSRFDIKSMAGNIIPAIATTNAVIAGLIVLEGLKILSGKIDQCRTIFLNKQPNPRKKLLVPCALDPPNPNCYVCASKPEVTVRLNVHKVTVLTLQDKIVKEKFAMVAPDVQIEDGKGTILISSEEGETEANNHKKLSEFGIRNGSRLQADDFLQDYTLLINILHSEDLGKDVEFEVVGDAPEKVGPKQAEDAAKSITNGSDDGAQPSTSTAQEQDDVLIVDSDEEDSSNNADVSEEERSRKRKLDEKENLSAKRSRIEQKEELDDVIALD
T1 sequence (Q9UBE0 1-346 partner): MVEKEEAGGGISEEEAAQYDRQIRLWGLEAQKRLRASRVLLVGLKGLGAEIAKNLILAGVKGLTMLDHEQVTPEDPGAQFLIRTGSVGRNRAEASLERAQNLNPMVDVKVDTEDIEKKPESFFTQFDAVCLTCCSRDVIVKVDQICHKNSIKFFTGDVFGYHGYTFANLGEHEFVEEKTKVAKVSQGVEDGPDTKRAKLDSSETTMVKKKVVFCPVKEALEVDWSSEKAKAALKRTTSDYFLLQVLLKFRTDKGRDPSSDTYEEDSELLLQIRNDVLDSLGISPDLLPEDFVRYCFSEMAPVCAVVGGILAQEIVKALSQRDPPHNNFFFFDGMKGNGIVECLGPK
Assay: SAE HTRF Enzyme Assay
Assay type: biochemical
Settings: for pIC50: class symbols A-C; for inhibition at 0.111 µM: compound concentration 0.111 μM, read-out: Percent Inhibition
Procedure, shortened: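 Measured as FRET after a 2 h antibody step: SAE (0.11 nM) thioester transfer of Sumo-Flag to Ubc9-GST, 0.5 μM ATP, 24° C for 105 min, quenched with 20 mM EDTA. Output is IC50 or percent inhibition at a single concentration.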

| SMILES | pIC50 | inhibition at 0.111 µM [%] |
| --- | --- | --- |
| NS(=O)(=O)OC[C@H]1C[C@@H](Nc2ncncc2C(=O)c2ccn(Cc3ccc(Cl)c(OC(F)(F)F)c3)n2)[C@@H](F)[C@@H]1O [Compound I-218, [(1R,2R,3R,4R)-4-{[5-({1-[4-chloro-3-(trifluoromethoxy)benzyl]-1H-pyrazol-3-yl}carbonyl)pyrimidin-4-yl]amino}-3-fluoro-2-hydroxycyclopentyl]methyl sulfamate] | 7.00 to 8.00 | 89 |
| NS(=O)(=O)OC[C@H]1C[C@@H](Nc2ncncc2C(=O)c2ccn(CC#CCC3CCOCC3)n2)C[C@@H]1O [Compound I-12, [(1R,2S,4R)-2-hydroxy-4-{[5-({1-[4-(tetrahydro-2H-pyran-4-yl)but-2-yn-1-yl]-1H-pyrazol-3-yl}carbonyl)pyrimidin-4-yl]amino}cyclopentyl]methyl sulfamate] | 6.00 to 7.00 | 39 |
| NS(=O)(=O)OC[C@H]1C[C@@H](Nc2ncncc2C(=O)c2ccn(S(=O)(=O)c3cccc(Br)c3)n2)[C@H](O)[C@@H]1O [Compound I-1, [(1R,2R,3S,4R)-4-{[5-({1-[(3-bromophenyl)sulfonyl]-1H-pyrazol-3-yl}carbonyl)pyrimidin-4-yl]amino}-2,3-dihydroxycyclopentyl]methyl sulfamate] | > 8.00 | 98 |
| NS(=O)(=O)OC[C@H]1C[C@@H](Nc2ncncc2C(=O)c2ccn(Cc3ccc(F)cc3Cl)n2)[C@H](O)[C@@H]1O [Compound I-194, {(1R,2R,3S,4R)-4-[(5-{[1-(2-chloro-4-fluorobenzyl)-1H-pyrazol-3-yl]carbonyl}pyrimidin-4-yl)amino]-2,3-dihydroxycyclopentyl}methyl sulfamate] | > 8.00 | 100 |
| NS(=O)(=O)OC[C@H]1C[C@@H](Nc2ncncc2C(=O)c2ccn(Cc3cc(F)cc(C(F)(F)F)c3)n2)[C@H](O)[C@@H]1O [Compound I-258, [(1R,2R,3S,4R)-4-{[5-({1-[3-fluoro-5-(trifluoromethyl)benzyl]-1H-pyrazol-3-yl}carbonyl)pyrimidin-4-yl]amino}-2,3-dihydroxycyclopentyl]methyl sulfamate] | > 8.00 | 97 |
| CC#CCn1ccc(C(=O)c2cncnc2N[C@@H]2C[C@H](COS(N)(=O)=O)[C@@H](O)C2)n1 [Compound I-228, {(1R,2S,4R)-4-[(5-{[1-(but-2-yn-1-yl)-1H-pyrazol-3-yl]carbonyl}pyrimidin-4-yl)amino]-2-hydroxycyclopentyl}methyl sulfamate] | 7.00 to 8.00 | 72 |
| NS(=O)(=O)OC[C@H]1C[C@@H](Nc2ncncc2C(=O)c2ccn(Cc3ccc(F)c(F)c3)n2)C[C@@H]1O [Compound I-212, {(1R,2S,4R)-4-[(5-{[1-(3,4-difluorobenzyl)-1H-pyrazol-3-yl]carbonyl}pyrimidin-4-yl)amino]-2-hydroxycyclopentyl}methyl sulfamate] | > 8.00 | 95 |
| NS(=O)(=O)OC[C@H]1C[C@@H](Nc2ncncc2C(=O)c2ccn(Cc3cncc(Br)c3)n2)C[C@@H]1O [Compound I-29, [(1R,2S,4R)-4-{[5-({1-[(5-bromopridin-3-yl)methyl]-1H-pyrazol-3-yl}carbonyl)pyrimidin-4-yl]amino}-2-hydroxycyclopentyl]methyl sulfamate] | 7.00 to 8.00 | 94 |
| COCC#CCn1ccc(C(=O)c2cncnc2N[C@@H]2C[C@H](COS(N)(=O)=O)[C@@H](O)[C@@H]2F)c1 [Compound I-236, {(1R,2R,3R,4R)-3-fluoro-2-hydroxy-4-[(5-{[1-(4-methoxybut-2-yn-1-yl)-1H-pyrrol-3-yl]carbonyl}pyrimidin-4-yl)amino]cyclopentyl}methyl sulfamate] | 7.00 to 8.00 | 54 |
| NS(=O)(=O)OC[C@H]1C[C@@H](Nc2ncncc2C(=O)c2ccn(Cc3cc(F)ccc3F)n2)C[C@@H]1O [Compound I-35, {(1R,2S,4R)-4-[(5-{[1-(2,5-difluorobenzyl)-1H-pyrazol-3-yl]carbonyl}pyrimidin-4-yl)amino]-2-hydroxycyclopentyl}methyl sulfamate] | > 8.00 | 95 |
| NS(=O)(=O)OC[C@H]1C[C@@H](Nc2ncncc2C(=O)c2ccn(Cc3cc(C(F)(F)F)ccc3Cl)n2)[C@H](O)[C@@H]1O [Compound I-268, [(1R,2R,3S,4R)-4-{[5-({1-[2-chloro-5-(trifluoromethyl)benzyl]-1H-pyrazol-3-yl}carbonyl)pyrimidin-4-yl]amino}-2,3-dihydroxycyclopentyl]methyl sulfamate] | > 8.00 | 99 |
| NS(=O)(=O)OC[C@H]1C[C@@H](Nc2ccncc2C(=O)c2ccn(Cc3cccc(Cl)c3)c2)[C@@H](F)[C@@H]1O [Compound I-124, {(1R,2R,3R,4R)-4-[(3-{[1-(3-chlorobenzyl)-1H-pyrrol-3-yl]carbonyl}pyridin-4-yl)amino]-3-fluoro-2-hydroxycyclopentyl}methyl sulfamate] | > 8.00 | 97 |
| NS(=O)(=O)OC[C@H]1C[C@@H](Nc2ncncc2C(=O)c2cc(CO)n(Cc3cccc(Br)c3)n2)C[C@@H]1O [Compound I-90, {(1R,2S,4R)-4-[(5-{[1-(3-Bromobenzyl)-5-(hydroxymethyl)-1H-pyrazol-3-yl]carbonyl}pyrimidin-4-yl)amino]-2-hydroxycyclopentyl}methyl sulfamate] | > 8.00 | 98 |
| NS(=O)(=O)OC[C@H]1C[C@@H](Nc2ncncc2C(=O)c2ccn(Cc3c(F)ccc(F)c3F)n2)[C@H](O)[C@@H]1O [Compound I-225, {(1R,2R,3S,4R)-2,3-dihydroxy-4-[(5-{[1-(2,3,6-trifluorobenzyl)-1H-pyrazol-3-yl]carbonyl}pyrimidin-4-yl)amino]cyclopentyl}methyl sulfamate] | > 8.00 | > 99 |
| NS(=O)(=O)OC[C@H]1C[C@@H](Nc2ncncc2C(=O)c2ccn(Cc3ccc(Cl)o3)c2)[C@@H](F)[C@@H]1O [Compound I-296, [(1R,2R,3R,4R)-4-{[5-({1-[(5-chloro-2-furyl)methyl]-1H-pyrrol-3-yl}carbonyl)pyrimidin-4-yl]amino}-3-fluoro-2-hydroxycyclopentyl]methyl sulfamate] | > 8.00 | 100 |
| NS(=O)(=O)OC[C@H]1C[C@@H](Nc2ncncc2C(=O)c2ccn(Cc3ccccc3OC(F)(F)F)n2)[C@H](O)[C@@H]1O [Compound I-98, [(1R,2R,3S,4R)-2,3-dihydroxy-4-{[5-({1-[2-(trifluoromethoxy)benzyl]-1H-pyrazol-3-yl}carbonyl)pyrimidin-4-yl]amino}cyclopentyl]methyl sulfamate] | > 8.00 | 96 |
| NS(=O)(=O)OC[C@H]1C[C@@H](Nc2ncncc2C(=O)c2ccn(-c3ccccc3)n2)C[C@@H]1O [Compound I-205, [(1R,2S,4R)-2-Hydroxy-4-({5-[(1-phenyl-1H-pyrazol-3-yl)carbonyl]pyrimidin-4-yl}amino)cyclopentyl]methyl sulfamate] | 7.00 to 8.00 | 60 |
| NS(=O)(=O)OC[C@@H]1C[C@@H](Nc2ncncc2C(=O)c2ccn(Cc3ccccc3)n2)C[C@@H]1O [Compound I-342, [(1S,2S,4R)-4-({5-[(1-benzyl-1H-pyrazol-3-yl)carbonyl]pyrimidin-4-yl}amino)-2-hydroxycyclopentyl]methyl sulfamate] | 7.00 to 8.00 | 79 |
| NS(=O)(=O)OC[C@H]1C[C@@H](Nc2ncncc2C(=O)c2ccn(Cc3cccnc3)n2)[C@H](O)[C@@H]1O [Compound I-247, {(1R,2R,3S,4R)-2,3-dihydroxy-4-[(5-{[1-(pyridin-3-ylmethyl)-1H-pyrazol-3-yl]carbonyl}pyrimidin-4-yl)amino]cyclopentyl}methyl sulfamate] | > 8.00 | 90 |
| NS(=O)(=O)OC[C@H]1C[C@@H](Nc2ncncc2C(=O)c2ccn(Cc3ccc(F)c(OC(F)(F)F)c3)c2)C[C@@H]1O [Compound I-211, [(1R,2S,4R)-4-{[5-({1-[4-fluoro-3-(trifluoromethoxy)benzyl]-1H-pyrrol-3-yl}carbonyl)pyrimidin-4-yl]amino}-2-hydroxycyclopentyl]methyl sulfamate] | > 8.00 | 97 |
